This passage reports IC50 results from patent US11224601B1, “Compounds that inhibits MCL-1 protein” (priority 2017, dated 2022).

Like-named read-outs stand apart in the source and are kept apart here.

For test [1], the target named is recombinant human Mcl-1 (Mcl-1/Bim interaction) (Homo sapiens (Human), UniProt Q07820). The experiment in a line: biochemical. The class given is binding. To be noted: cell free Mcl-1:Bim TR-FRET. A general note: In TR-FRET formats the signal depends on donor and acceptor labels being close together.
Method: Cell free Mcl-1:Bim Affinity Assay (Mcl-1 HTRF)
The inhibition of the Mcl-1/Bim interaction was measured using a time-resolved fluorescence resonance energy transfer (TR-FRET) assay. The recombinant human Mcl-1 (C-terminally 6×His tagged Mcl-1 containing residues 171-327) was generated at Amgen Inc (Thousand Oaks, Calif.). A biotinylated peptide derived from human Bim (residues 51-76) was purchased from CPC Scientific (San Jose, Calif.). The TR-FRET assay was conducted in a 384-well white OptiPlate™ (PerkinElmer, Waltham, Mass.) in a total volume of 40 μL. The reaction mixture contained 0.1 nM Mcl-1(171-327), 0.05 nM biotin-Bim(51-76), 0.05 nM LANCE® Eu-W1024 Anti-6×His (PerkinElmer), 0.072 nM Streptavidin-Xlent (Cisbio, Bedford, Mass.), and serially diluted test compounds in the binding buffer of 20 mM Hepes, pH 7.5, 150 mM NaCl, 0.016 mM Brij® 35, and 1 mM dithiothreitol. Test compounds were pre-incubated with Mcl-1(171-327) and biotin-Bim (51-76) for 60 min before addition of the detection mixture (LANCE® Eu-W1024 Anti-6×His and Streptavidin-Xlent). The reaction plates were further incubated overnight and then were read on an Envision® multimode reader (PerkinElmer). Fluorescence signals were measured at 620 nm (40-nm bandwidth) and 665 nm (7.5-nm bandwidth) with a 60 μs delay after excitation at 320 nm (75-nm bandwidth). The signal ratio at 665/620 nm corresponded to the Mcl-1/Bim interaction and was used in all data analyses. The IC50 values of test compounds were determined from duplicate data by analyzing competition curves using a four-parameter sigmoidal model in GraphPad Prism (GraphPad Software, San Diego, Calif.) or in Genedata Screener® (Genedata, Basel, Switzerland).
For test [2], the system named is OPM-2 human multiple myeloma cell line. In words: Cell Viability Assay (OPM-2 10 FBS), CellTiter-Glo. The class given is cell-based. As to the method: Cell Viability Assay (OPM-2 10 FBS)
The human multiple myeloma cell line, OPM-2, was cultured in complete growth medium containing RPMI 1640 and 10% fetal bovine serum (FBS). Cells were seeded into 384-well plates at 3000 cells/well density in complete growth medium containing 10% FBS, and incubated for 16 h with serially diluted test compounds in a 37° C. incubator with 5% CO2. Cell viability was tested using CellTiter-Glo® assay (Promega, Madison, Wis.) according to the manufacturer recommendations. Luminescence was determined using an EnVision® Multilabel plate reader 25 min after the addition of detection reagent. IC50 values were then calculated with Xlfit using a logistical 4-parameter fit model in GraphPad Prism (GraphPad Software, San Diego, Calif.) or in Genedata Screener® (Genedata, Basel, Switzerland).
(ATP-based viability assays read luminescence as a measure of living cells.)

The mark [3] stands for this setting: Homo sapiens, OPM-2, 16 h, read-out: OPM-2 10% FBS IC50 IP (μM), OPM-2 cells, 10% FBS, 16 h, CellTiter-Glo.
Where [4] appears, read: read-out: OPM-2 10% FBS IC50 IP, OPM-2 cells, 10% FBS, 16 h, CellTiter-Glo.

In general, IC50 refers to the concentration that gives 50% inhibition.

Sequence of recombinant human Mcl-1 (Mcl-1/Bim interaction) (Q07820 171-327): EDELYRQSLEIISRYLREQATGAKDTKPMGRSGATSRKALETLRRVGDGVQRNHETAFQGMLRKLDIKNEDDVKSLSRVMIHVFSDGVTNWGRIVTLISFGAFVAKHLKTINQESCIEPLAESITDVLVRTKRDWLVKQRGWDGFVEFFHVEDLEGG

In the case of `CCO[C@]1(CN2CCN(C(C)C)[C@H](C)C2)/C=C/C[C@H](C)[C@@H](CCOC)S(=O)(=O)NC(=O)c2ccc3c(c2)N(C[C@@H]2CC[C@H]21)C[C@@]1(CCCc2cc(Cl)ccc21)CO3` [Example 17, (1S,3′R,6′R,7′R,8′E,11′S,12′R)-6-chloro-7′-ethoxy-12′-(2-methoxyethyl)-11′-methyl-7′-(((3R)-3-methyl-4-(1-methylethyl)-1-piperazinyl)methyl)-3,4-dihydro-2H,15′H-spiro[naphthalene-1,22′-[20]oxa[13]thia[1,14]diazatetracyclo[14.7.2.0˜3,6˜.0˜19,24˜]pentacosa[8,16,18,24]tetraen]-15′-one 13′,13′-dioxide], the IC50 in test [1] (read-out: Mcl-1 HTRF IC50) was 0.073 nM; in test [2] (setting [3]) it was 0.034 µM.
Taken in the same sequence, the figures for `CC(C)CO[C@@]1(CN2CCN(C3COC3)CC2)/C=C/C[C@H](C)[C@@H](C)S(=O)(=O)NC(=O)c2ccc3c(c2)N(C[C@@H]2CC[C@H]21)C[C@@]1(CCCc2cc(Cl)ccc21)CO3` [Example 348, (1S,3′R,6′R,7′S,8′E,11′S,12′R)-6-chloro-11′,12′-dimethyl-7′-(2-methylpropoxy)-7′-((4-(3-oxetanyl)-1-piperazinyl)methyl)-3,4-dihydro-2H,15′H-spiro[naphthalene-1,22′-[20]oxa[13]thia[1,14]diazatetracyclo[14.7.2.0˜3,6˜.0˜19,24˜]pentacosa[8,16,18,24]tetraen]-15′-one 13′,13′-dioxide] were 2.62 nM and 5.36 µM.
On the same counts, the results for `CO[C@@]1(CN2CCN3CCN(C)CC3C2)/C=C/C[C@H](C)[C@@H](C)S(=O)(=O)NC(=O)c2ccc3c(c2)N(C[C@@H]2CC[C@H]21)C[C@@]1(CCCc2cc(Cl)ccc21)CO3` (single isomer, unassigned) [Example 216] are 0.49 nM and 0.183 µM.
For the compound “(1S,3′R,6′R,7′R,11′S,12′R)-6-chloro-7′- hydroxy-11′,12′-dimethyl-7′-(1-methyl-4- piperidinyl)-3,4-dihydro-2H,15′H- spiro[naphthalene-1,22′- [20]oxa[13]thia[1,14]diazatetracyclo [14.7.2.0~3,6~.0~19,24~]pentacosa[16,18,24] trien]-15′-one 13′,13′-dioxide [Example 100382]”, the IC50 in test [1] (read-out: Mel-1 HTRF IC50) came to 0.471 nM; in test [2] (setting [4]), 0.312 µM.
As for `CO[C@]1(CN2CCN3CC[C@H](F)C[C@@H]3C2)/C=C/C[C@H](C)[C@@H](C)S(=O)(=O)NC(=O)c2ccc3c(c2)N(C[C@@H]2CC[C@H]21)C[C@@]1(CCCc2cc(Cl)ccc21)CO3` (stereo in doubt) [Example 293], the results for the IC50 in test [1] (read-out: Mcl-1 HTRF IC50) and in test [2] (setting [4]) were 0.242 nM and 0.207 µM, respectively.
Take `CCO[C@]1(CN2CCN(C(C)C)[C@H](C)C2)/C=C/C[C@H](C)[C@@H](C)S(=O)(=O)NC(=O)c2ccc3c(c2)N(C[C@@H]2CC[C@H]21)C[C@@]1(CCCc2cc(Cl)ccc21)CO3` [Example 9, (1S,3′R,6′R,7′R,8′E,11′S,12′R)-6-chloro-7′-ethoxy-11′,12′-dimethyl-7′-(((3R)-3-methyl-4-(1-methylethyl)-1-piperazinyl)methyl)-3,4-dihydro-2H,15′H-spiro[naphthalene-1,22′-[20]oxa[13]thia[1,14]diazatetracyclo[14.7.2.0˜3,6˜.0˜19,24˜]pentacosa[8,16,18,24]tetraen]-15′-one 13′,13′-dioxide]: the IC50 turned out to be 0.078 nM in test [1] (read-out: Mcl-1 HTRF IC50) and 0.05 µM in test [2] (setting [3]).
Take `CO[C@@]1(CN2CCN3CCOC[C@@H]3C2)/C=C/C[C@H](C)[C@H]2CCN(C(=O)c3ccc4c(c3)N(C[C@@H]3CC[C@H]31)C[C@@]1(CCCc3cc(Cl)ccc31)CO4)S2(=O)=O` [Example 364, (1S,3′R,6′R,7′S,8′E,11′S,12′R)-6-chloro-7′-((9aS)-hexahydropyrazino[2,1-c][1,4]oxazin-8(1H)-ylmethyl)-7′-methoxy-11′-methyl-3,4-dihydro-2H,16′H-spiro[naphthalene-1,23′-[21]oxa[27]thia[1,15]diazapentacyclo[15.7.2.1˜12,15˜.0˜3,6˜.0˜20,25˜]heptacosa[8,17,19,25]tetraen]-16′-one 27′,27′-dioxide]: the values for the IC50 in test [1] (read-out: Mcl-1 HTRF IC50) and in test [2] (setting [3]) were 192 nM and more than 33.3 µM, respectively.
As to `CO[C@@]1(C(=O)N(C)C)/C=C/C[C@H](C)[C@@H](C)S(=O)(=O)NC(=O)c2ccc3c(c2)N(C[C@@H]2CC[C@H]21)C[C@@]1(CCCc2cc(Cl)ccc21)CO3` [Example 176, (1S,3′R,6′R,7′S,8′E,11′S,12′R)-6-chloro-7′-methoxy-N,N,11′,12′-tetramethyl-15′-oxo-3,4-dihydro-2H-spiro[naphthalene-1,22′-[20]oxa[13]thia[1,14]diazatetracyclo[14.7.2.0˜3,6˜.0˜19,24˜]pentacosa[8,16,18,24]tetraene]-7′-carboxamide 13′,13′-dioxide], the values for the IC50 in test [1] (read-out: Mcl-1 HTRF IC50) and in test [2] (setting [3]) were 0.118 nM and 0.149 µM, respectively.
Taken in the same sequence, the figures for `C[C@@H]1[C@@H](C)C/C=C/[C@@](O)(CN2CCN3CCOC[C@@H]3C2)[C@@H]2CC[C@H]2CN2C[C@@]3(CCCc4cc(Cl)ccc43)COc3ccc(cc32)C(=O)NS1(=O)=O` [Example 193, (1S,3′R,6′R,7′S,8′E,11′S,12′R)-6-chloro-7′-((9aS)-hexahydropyrazino[2,1-c][1,4]oxazin-8(1H)-ylmethyl)-7′-hydroxy-11′,12′-dimethyl-3,4-dihydro-2H,15′H-spiro[naphthalene-1,22′-[20]oxa[13]thia[1,14]diazatetracyclo[14.7.2.0˜3,6˜.0˜19,24˜]pentacosa[8,16,18,24]tetraen]-15′-one 13′,13′-dioxide] were 0.096 nM and 0.023 µM.
On to `CO[C@@]1(CN2CCN3CCC[C@@H]3C2)/C=C/C[C@H](C)[C@@H](C)S(=O)(=O)NC(=O)c2ccc3c(c2)N(C[C@@H]2CC[C@H]21)C[C@@]1(CCCc2cc(Cl)ccc21)CO3` (stereo in doubt) [Example 80], for which the 50% inhibitory concentration (IC50) in test [1] (read-out: Mcl-1 HTRF IC50) came to 1.55 nM; in test [2] (setting [3]), 0.205 µM.
On the same counts, the results for `CO[C@]1(CN2CCN3CCCC[C@@H]3C2)/C=C/C[C@H](C)[C@@H](CCO)S(=O)(=O)NC(=O)c2ccc3c(c2)N(C[C@@H]2CC[C@H]21)C[C@@]1(CCCc2cc(Cl)ccc21)CO3` [Example 358, (1S,3′R,6′R,7′R,8′E,11′S,12′R)-6-chloro-12′-(2-hydroxyethyl)-7′-methoxy-11′-methyl-7′-((9aR)-octahydro-2H-pyrido[1,2-a]pyrazin-2-ylmethyl)-3,4-dihydro-2H,15′H-spiro[naphthalene-1,22′-[20]oxa[13]thia[1,14]diazatetracyclo[14.7.2.0˜3,6˜.0˜19,24˜]pentacosa[8,16,18,24]tetraen]-15′-one 13′,13′-dioxide] are 0.066 nM and 0.144 µM.
In the case of `CO[C@@]1(CN2CCN3CCOC[C@@H]3C2)/C=C/C[C@H](C)[C@@H](CCCl)S(=O)(=O)NC(=O)c2ccc3c(c2)N(C[C@@H]2CC[C@H]21)C[C@@]1(CCCc2cc(Cl)ccc21)CO3` [Example 366, (1S,3′R,6′R,7′S,8′E,11′S,12′R)-6-chloro-12′-(2-chloroethyl)-7′-((9aS)-hexahydropyrazino[2,1-c][1,4]oxazin-8(1H)-ylmethyl)-7′-methoxy-11′-methyl-3,4-dihydro-2H,15′H-spiro[naphthalene-1,22′-[20]oxa[13]thia[1,14]diazatetracyclo[14.7.2.0˜3,6˜.0˜19,24˜]pentacosa[8,16,18,24]tetraen]-15′-one 13′,13′-dioxide], the IC50 worked out at 0.248 nM in test [1] (read-out: Mcl-1 HTRF IC50) and 0.133 µM in test [2] (setting [3]).
With `CO[C@]1(CN2CCN3CCCC[C@@H]3C2)/C=C/C[C@H](C)[C@@H](CCN(C)C)S(=O)(=O)NC(=O)c2ccc3c(c2)N(C[C@@H]2CC[C@H]21)C[C@@]1(CCCc2cc(Cl)ccc21)CO3` [Example 367, (1S,3′R,6′R,7′R,8′E,11′S,12′R)-6-chloro-12′-(2-(dimethylamino)ethyl)-7′-methoxy-11′-methyl-7′-((9aR)-octahydro-2H-pyrido[1,2-a]pyrazin-2-ylmethyl)-3,4-dihydro-2H,15′H-spiro[naphthalene-1,22′-[20]oxa[13]thia[1,14]diazatetracyclo[14.7.2.0˜3,6˜.0˜19,24˜]pentacosa[8,16,18,24]tetraen]-15′-one 13′,13′-dioxide], the concentration for half-maximal inhibition (IC50) in test [1] (read-out: Mcl-1 HTRF IC50) worked out at 0.201 nM; in test [2] (setting [3]), 0.273 µM.
On to `CO[C@]1(CN2CCN3CCS(=O)(=O)C[C@@H]3C2)/C=C/C[C@H](C)[C@@H](C)S(=O)(=O)NC(=O)c2ccc3c(c2)N(C[C@@H]2CC[C@H]21)C[C@@]1(CCCc2cc(Cl)ccc21)CO3` (stereo in doubt) [Example 219], for which the IC50 in test [1] (read-out: Mcl-1 HTRF IC50) stood at 0.073 nM.
In the case of `C[C@@H]1[C@@H](C)C/C=C/[C@]2(CN(Cc3ccccc3)CCO2)[C@@H]2CC[C@H]2CN2C[C@@]3(CCCc4cc(Cl)ccc43)COc3ccc(cc32)C(=O)NS1(=O)=O` [Example 138, (1S,3′R,6′R,7′R,8′E,11′S,12′R)-4″-benzyl-6-chloro-11′,12′-dimethyl-3,4-dihydro-2H,15′H-dispiro[naphthalene-1,22′-[20]oxa[13]thia[1,14]diazatetracyclo[14.7.2.0˜3,6˜.0˜19,24˜]pentacosa[8,16,18,24]tetraene-7′,2″-[1,4]oxazinan]-15′-one 13′,13′-dioxide], the IC50 in test [1] (read-out: Mcl-1 HTRF IC50) was 26.7 nM.
On to `CO[C@]1(CN2CCN3CCS(=O)(=O)C[C@@H]3C2)/C=C/C[C@H](C)[C@@H](C)S(=O)(=O)NC(=O)c2ccc3c(c2)N(C[C@@H]2CC[C@H]21)C[C@@]1(CCCc2cc(Cl)ccc21)CO3` (stereo in doubt) [Example 215], for which the IC50 in test [1] (read-out: Mcl-1 HTRF IC50) was determined as 0.149 nM.
